In patent US8563730B2, “Pyrazole and fused pyrazole glucokinase activators” (Takeda San Diego, Inc., priority 2008, dated 2013) one finds EC50 and Emax data, which are given here for 15 compounds.

Where two headings read alike, the source gives them in different places.

The target in this experiment is T1, GK (glucokinase, residues 12-465) (Homo sapiens, UniProt P35557).
T1 construct: I.D. No. 1 corresponds to residues 12-465 of glucokinase; made in house; host or cells: DH10b-T1r E. coli
T1 sequence (P35557 with tags, fused parts or gaps isoform P35557-2): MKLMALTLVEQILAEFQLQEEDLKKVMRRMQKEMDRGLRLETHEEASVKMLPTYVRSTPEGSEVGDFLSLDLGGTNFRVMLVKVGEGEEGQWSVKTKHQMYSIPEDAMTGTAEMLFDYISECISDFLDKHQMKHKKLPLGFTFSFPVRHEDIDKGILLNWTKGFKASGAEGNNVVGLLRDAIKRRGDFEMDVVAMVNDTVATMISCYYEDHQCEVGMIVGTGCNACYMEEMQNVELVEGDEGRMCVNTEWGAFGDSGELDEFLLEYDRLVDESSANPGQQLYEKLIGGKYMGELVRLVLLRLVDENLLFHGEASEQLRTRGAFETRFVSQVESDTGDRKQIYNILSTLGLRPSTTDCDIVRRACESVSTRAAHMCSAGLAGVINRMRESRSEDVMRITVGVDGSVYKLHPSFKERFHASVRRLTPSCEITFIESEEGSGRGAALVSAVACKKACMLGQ
Description: enzymatic glucokinase activity assay (ATP consumption, KinaseGlo luminescence). The experiment is classed as biochemical. The settings on record: 5 μM ATP, 5 mM Glucose, reported as bins; for EC50: Kact = concentration that displays 50% of the maximal increase in GK activity, 60 min, room temperature, read-out: pKact. In short, it runs like this:
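E. coli-expressed recombinant GK purified by two anion-exchange steps. Reaction in 25 mM Hepes pH 7.2, 10 mM MgCl2, 1 mM DTT, 5 μM ATP, 5 mM glucose, 2% DMSO, 60 min at room temperature. ATP consumption quantified by KinaseGlo luminescence; pKact and % ACTmax derived by non-linear curve fitting.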

[1] abbreviates: calculated maximal gain in GK enzyme activity at a saturating concentration of the compound, read-out: % ACTmax.
[2] abbreviates: read-out: % ACTmax, calculated maximal gain in GK enzyme activity at a saturating concentration of the compound.

For the compound `COC(=O)c1cnc(NC(=O)C(CC2CCCC2)n2cc(S(=O)(=O)C3CC3)cn2)s1` (stereo not drawn) [Compound 6, Methyl 2-(3-cyclopentyl-2-(4-(cyclopropylsulfonyl)-1H-pyrazol-1-yl)propanamido)thiazole-5-carboxylate], the EC50 is 3980 to 12600 nM. In addition, the Emax under setting [1] was not below 111%.

Regarding `O=C(Nc1ncc(F)s1)[C@@H](CC1CCOCC1)n1ncc2c(S(=O)(=O)C3CC3)cncc21` [Compound 85, (R)-2-(4-(cyclopropylsulfonyl)-1H-pyrazolo[3,4-c]pyridin-1-yl)-N-(5-fluorothiazol-2-yl)-3-(tetrahydro-2H-pyran-4-yl)propanamide], the EC50 was 1580 to 3160 nM. Also, under setting [2], the Emax is 90 to 100%.

As to `N#Cc1cnc(NC(=O)C(CC2CCOCC2)n2ncc3c(S(=O)(=O)C4CC4)cccc32)s1` (stereo not drawn) [Compound 125, N-(5-cyanothiazol-2-yl)-2-(4-(cyclopropylsulfonyl)-1H-indazol-1-yl)-3-(tetrahydro-2H-pyran-4-yl)propanamide], the EC50 is 1580 to 3160 nM. In addition, the Emax under setting [1] was not below 111%.

On to `O=C(Nc1ncc(Cl)s1)C(CC1CCOCC1)n1ncc2ccc(S(=O)(=O)C3CC3)cc21` (stereo not drawn) [Compound 60, N-(5-chlorothiazol-2-yl)-2-(6-(cyclopropylsulfonyl)-1H-indazol-1-yl)-3-(tetrahydro-2H-pyran-4-yl)propanamide], for which the EC50 was not below 15800 nM. Besides, under setting [1], the Emax was not above 90%.

Consider `COc1cc(S(=O)(=O)C2CC2)c2cnn(C(CC3CCOCC3)C(=O)Nc3cnccn3)c2c1` (stereo not drawn) [Compound 92, 2-(4-(cyclopropylsulfonyl)-6-methoxy-1H-indazol-1-yl)-N-(pyrazin-2-yl)-3-(tetrahydro-2H-pyran-4-yl)propanamide], for which the EC50 is 3980 to 12600 nM. The Emax under setting [1] was not above 90%.

`O=C(Nc1ncc(F)s1)C(CC1CCOCC1)n1ncc2c(S(=O)(=O)C3CC3)c(OC(F)F)ccc21` (stereo not drawn) [Compound 87, 2-(4-(cyclopropylsulfonyl)-5-(difluoromethoxy)-1H-indazol-1-yl)-N-(5-fluorothiazol-2-yl)-3-(tetrahydro-2H-pyran-4-yl)propanamide]: the EC50 was in the range of 1580 to 3160 nM. The Emax under setting [1] is 90 to 100%.

As for `Nc1cc(S(=O)(=O)C2CC2)c2cnn([C@H](CC3CCOCC3)C(=O)Nc3cnccn3)c2n1` [Compound 163, (R)-2-(6-amino-4-(cyclopropylsulfonyl)-1H-pyrazolo[3,4-b]pyridin-1-yl)-N-(pyrazin-2-yl)-3-(tetrahydro-2H-pyran-4-yl)propanamide], the EC50 fell in the range of 1580 to 3160 nM. For the same compound, under setting [1], the Emax is not above 90%.

Take `O=C(Nc1cnccn1)C(CC1CCOCC1)n1ncc2c(S(=O)(=O)C3CC3)cc(Cl)cc21` (stereo not drawn) [Compound 102, 2-(6-chloro-4-(cyclopropylsulfonyl)-1H-indazol-1-yl)-N-(pyrazin-2-yl)-3-(tetrahydro-2H-pyran-4-yl)propanamide]: the EC50 fell in the range of 398 to 1260 nM. In addition, the Emax under setting [1] was 90 to 100%.

On to `O=C(Nc1cnccn1)C(CC1CCOCC1)n1ncc2c(S(=O)(=O)C3CC3)c(F)ccc21` (stereo not drawn) [Compound 154, 2-(4-(cyclopropylsulfonyl)-5-fluoro-1H-indazol-1-yl)-N-(pyrazin-2-yl)-3-(tetrahydro-2H-pyran-4-yl)propanamide], for which the EC50 is not above 316 nM. Also, the Emax under setting [1] is 106 to 110%.

For `Cc1ccc2c(cnn2C(CC2CCOCC2)C(=O)Nc2cnccn2)c1S(=O)(=O)C1CC1` (stereo not drawn) [Compound 157, 2-(4-(cyclopropylsulfonyl)-5-methyl-1H-indazol-1-yl)-N-(pyrazin-2-yl)-3-(tetrahydro-2H-pyran-4-yl)propanamide], the EC50 is 398 to 1260 nM. Besides, the Emax under setting [1] is not below 111%.

On to `Cn1ccc(NC(=O)C(CC2CCOCC2)n2cc3c(S(=O)(=O)C4CC4)cc(Cl)cc3n2)n1` (stereo not drawn) [Compound 167, 2-(6-chloro-4-(cyclopropylsulfonyl)-2H-indazol-2-yl)-N-(1-methyl-1H-pyrazol-3-yl)-3-(tetrahydro-2H-pyran-4-yl)propanamide], for which the EC50 lay in the range of 3980 to 12600 nM. Also, under setting [1], the Emax was not above 90%.

Turning to `Cn1ccc(NC(=O)[C@H](CC2CCOCC2)n2ncc3c(S(=O)(=O)C4CC4)cccc32)n1` [Compound 119], the EC50 was 398 to 1260 nM. Besides, the Emax under setting [2] is 90 to 100%.

`O=C(Nc1ncc(Cl)s1)[C@@H](CC1CCCC1)n1cc(S(=O)(=O)C2CC2)cn1` [Compound 38, (R)-N-(5-chlorothiazol-2-yl)-3-cyclopentyl-2-(4-(cyclopropylsulfonyl)-1H-pyrazol-1-yl)propanamide]: the EC50 is not below 15800 nM. Under setting [1], the Emax is not below 111%.

Take `COc1ccc2c(cnn2C(CC2CCOCC2)C(=O)Nc2ccn(C)n2)c1S(=O)(=O)C1CC1` (racemic) [Compound 15, 2-(4-(cyclopropylsulfonyl)-5-methoxy-1H-indazol-1-yl)-N-(1-methyl-1H-pyrazol-3-yl)-3-(tetrahydro-2H-pyran-4-yl)propanamide]: the EC50 was 398 to 1260 nM. Further, the Emax under setting [1] is 90 to 100%.

Regarding `CC(C)(C)S(=O)(=O)c1cnn([C@@H](CC2CCOCC2)C(=O)Nc2ncc(F)s2)c1` [Compound 53, (S)-2-(4-(tert-butylsulfonyl)-1H-pyrazol-1-yl)-N-(5-fluorothiazol-2-yl)-3-(tetrahydro-2H-pyran-4-yl)propanamide], the EC50 was not below 15800 nM. Further, the Emax under setting [1] was not above 90%.
